This data set in a line: Human HepG2 cell viability assay in 384 well format. It counts as toxicity, cell-based. More on the design: dose 125 nL, time 70.5 hour; cytotoxicity at 70.5 h: concentration not given beside the values. The settings on record: HepG2 cells, read-out: Inhibition.

SMILES strings stand for the structures.

95 molecules from ChEMBL document CHEMBL3507680, “University of Dundee, Gates Library screen for HepG2 cell viability” can be followed below.

`Cc1sc(N)nc1-c1ccc(Cl)cc1`: the cytotoxicity at 70.5 h came to 15.4%.
In the case of `O=C(c1ccc(Br)cc1F)N1CCc2ccncc21`, the cytotoxicity at 70.5 h worked out at 3.99%.
Under `CCN(C(=O)CCc1ccc2[nH]ccc2c1)C1CC(=O)NC1=O` (stereo not given) stands -2.25%; under `Cn1cnc2cc(C(=O)NS(=O)(=O)c3ccccc3Cl)ccc21`, -2.15%.
The result for `Cc1sc(CN)nc1-c1ccccc1` reads -3.17%; that for `Cc1ccc(NC(=O)N2CCCC(N(C)C)C2)c(Br)c1` (stereo not given), -3.97%; that for `Cc1cc(C(=O)N(CC(C)C)CC(O)c2ccc(F)cc2)[nH]n1` (stereo not given), -2.51%.
As to `COc1ccc(C(C)NCc2cnnn2C)cc1F` (stereo not given), the cytotoxicity at 70.5 h turned out to be 2.17%.
Under `CC(C)CN(CC(O)c1ccc(F)cc1)C(=O)c1cc[nH]n1` (stereo not given) stands -3.9%.
On to `CC(C)CSCCCNC(=O)C1CCC1`, for which the cytotoxicity at 70.5 h is -2.26%.
Turning to `CC(C)CN(CC(O)c1ccc(F)cc1)C(=O)c1cnsn1` (stereo not given), the cytotoxicity at 70.5 h is -3.42%.
Turning to `CCc1nnc2n1CCN(Cc1nc3c(F)cccc3[nH]1)C2`, the cytotoxicity at 70.5 h was 11.8%.
On to `CC(=O)N(C)Cc1ccccc1NC(=O)N(C)CCc1cccs1`, for which the cytotoxicity at 70.5 h was -3.06%.
The result for `COc1ccccc1CNC(C)c1cnc2cc(C)nn2c1C` (stereo not given) reads -1.5%.
The result for `Cc1nonc1NC(=O)c1ccc(F)c(COCC2CC2)c1` reads 11.9%; that for `COC(C)(C)c1noc(C2(C#N)CCCC2)n1`, -1.33%; that for `O=C(Nc1ccccc1OC(F)(F)F)C1CCS(=O)(=O)C1` (stereo not given), -9.01%.
The result for `c1csc(N2CCN(Cc3nnnn3C3CC3)CC2)n1` reads 0.58%.
`CC(NC(=O)N1CCN(c2ncccn2)CC1)c1ccc(C#N)cc1` (stereo not given): the cytotoxicity at 70.5 h was -4.87%.
Under `COc1ccc2c(c1)CCCN2C(=O)NCCc1cnn(C)c1` stands -11.2%; under `COC(=O)N1CCN(CCCc2nnnn2-c2ccccc2)CC1`, 8.7%; under `CN(CCC(F)(F)F)Cc1nc2ccccc2c(=O)[nH]1`, -3.56%.
As for `O=C(Nc1ccccc1Oc1cccc(F)c1)C1CCS(=O)(=O)C1` (stereo not given), the cytotoxicity at 70.5 h was -5.38%.
Consider `Cc1n[nH]cc1CNCC(c1ccsc1)N(C)C` (stereo not given), for which the cytotoxicity at 70.5 h is -7.79%.
The result for `Cn1cc(C(=O)N2C[C@@H]3CN(S(C)(=O)=O)CCO[C@@H]3C2)cn1` reads -0.664%.
Under `CN1Cc2ccccc2CC2(CCN(C(=O)N3CCOCC3)CC2)C1=O` stands 24.7%; under `CCN1CCNC(=O)C12CCN(C(=O)Cc1ccsc1)CC2`, 2.23%; under `COc1ccc(S(=O)(=O)N2C[C@@H]3CN(C)CCO[C@@H]3C2)cc1`, -4.18%.
As to `COCCn1c2c(ccc1=O)CCN(C(=O)CC1CC1)CC2`, the cytotoxicity at 70.5 h was -2.25%.
For `CC(=O)N1CC[C@H]2OCC[C@@H](C(=O)Nc3cccnc3C)[C@@H]2C1`, the cytotoxicity at 70.5 h was -5.24%.
Under `CC(C)NC(=O)N1CCC2(CC1)Cc1ccccc1CN(C)C2=O` stands -2.79%; under `N#Cc1ccc(C(=O)N2CCc3c(COCC4CC4)cncc3C2)cc1`, -5.21%; under `COCCNC(=O)C[C@@H]1COC[C@H]2CN(C(=O)C3CCOCC3)C[C@@H]12`, 1.49%.
Under `O=C(c1ccoc1)N1CCO[C@@H]2CNC[C@@H]21` stands -1.42%; under `O=C(CC1CC1)N[C@@H]1CN(C(=O)c2ccoc2)C[C@@H]2CCCO[C@@H]21`, -12.7%.
For the molecule `COc1cc(N2CCC3(CC(=O)N(Cc4csc(C)n4)C3)C2)ncn1` (stereo not given), the cytotoxicity at 70.5 h was -6.14%.
As to `Cc1occc1C(=O)N1C[C@@H]2CCCO[C@@H]2[C@H](NC(=O)CC2CC2)C1`, the cytotoxicity at 70.5 h is -7.56%.
For the molecule `CCCNC(=O)c1cc2c(s1)CCN2c1ncccn1`, the cytotoxicity at 70.5 h was determined as 3.12%.
With `CN(C)CC(=O)N1Cc2nc(C(=O)N3CCCN(C)CC3)oc2C1`, the cytotoxicity at 70.5 h was -7.8%.
As to `O=C(CC1CC1)N[C@@H]1CN(C(=O)c2cccs2)C[C@@H]2CCCO[C@@H]21`, the cytotoxicity at 70.5 h was -7.28%.
In the case of `CC(C)C(=O)N1CC[C@H]2N(C)CC[C@@]2(C(=O)Nc2ccccc2)CC1`, the cytotoxicity at 70.5 h is -10.2%.
Regarding `O=C(C1CCOC1)N1C[C@@H]2CCN(C(=O)c3cscn3)[C@@H]2C1` (stereo not given in full), the cytotoxicity at 70.5 h worked out at 14%.
The result for `c1cnc(N2CCc3onc(CN4CCCC4)c3C2)cn1` reads 6.11%.
Take `c1cnc(NCc2noc3c2CN(c2cnccn2)CC3)nc1`: the cytotoxicity at 70.5 h was -3.45%.
Under `Cc1cc(C(=O)NC2CCc3c(ccc(=O)n3CC(C)C)C2)no1` (stereo not given) stands -4.48%; under `CN(C)CCN1CCO[C@@H]2CCN(C(=O)c3cccn3C)CC[C@H]21`, 10.8%.
Under `CCS(=O)(=O)N1CCN(CC2CC2)c2ncccc2C1` stands -2.09%; under `Cc1cc(C(=O)NC2CCc3c(ccc(=O)n3CCN(C)C)C2)no1` (stereo not given), -3.71%.
For the molecule `CCN1Cc2ccccc2CC2(CCN(C)CC2)C1=O`, the cytotoxicity at 70.5 h is -7.96%.
The result for `CCN1Cc2ccccc2CC2(CCN(C(=O)N(C)C)CC2)C1=O` reads -5.37%; that for `CC(=O)N1CCO[C@@H]2CN(S(=O)(=O)c3cccs3)CC[C@@H]2C1`, -9.77%; that for `COCC1COCCC12CCN(S(=O)(=O)c1ccccc1C)CC2` (stereo not given), 7.67%.
For the molecule `C[C@H]1CCCCN1CCCNc1nccc(-c2c[nH][nH]c2=O)n1`, the cytotoxicity at 70.5 h worked out at 4.41%.
Consider `CN1CCN(CC2CC2)C(=O)c2cnc(N3CCOCC3)nc21`, for which the cytotoxicity at 70.5 h is -3.35%.
For `Cc1[nH]c2ccccc2c1-c1ccnc(N[C@H](CO)CC(C)C)n1`, the cytotoxicity at 70.5 h is -2.73%.
The result for `COC(=O)c1ccc2c(-c3ccnc(N[C@@H](C)CO)n3)c[nH]c2c1` reads -2.09%; that for `Cc1ccc(C(CNCc2c[nH]nc2C)N(C)C)cc1` (stereo not given), 11.2%.
On to `CN(C)Cc1cncc2c1CCN(C1CCOCC1)C2`, for which the cytotoxicity at 70.5 h was -8.32%.
The result for `CCc1ccc(CN2C[C@H](OCC(=O)N(C)C)[C@H]3COC[C@H]32)o1` reads -0.34%.
Under `O=C1CCCN1Cc1nnc2n1CCCN(Cc1ccco1)C2` stands -0.266%; under `CCc1ccc(CN2C[C@H](OC)[C@H]3COC[C@H]32)o1`, -0.659%; under `CCS(=O)(=O)N1Cc2[nH]nc(COCc3cccnc3)c2C1`, -2.23%.
The result for `O=C(c1cscn1)N1CC[C@@H]2[C@@H]1CCN2C1CCOC1` (stereo not given in full) reads -1.49%.
As for `CO[C@H]1CCN(Cc2ccoc2)C[C@@H]1Cc1ccccc1`, the cytotoxicity at 70.5 h is 20.5%.
In the case of `CO[C@@H]1CCN(Cc2ccoc2)C[C@@H]1Cc1ccccc1`, the cytotoxicity at 70.5 h was 1.1%.
In the case of `COc1ccc(C[C@H]2CN(Cc3ccoc3)CC[C@@H]2OC)cc1`, the cytotoxicity at 70.5 h is -2.46%.
The result for `COCCNC(=O)C[C@@H]1COC[C@H]2CN(CC3CCOCC3)C[C@@H]12` reads 1.35%; that for `Cc1noc(C)c1C(=O)N1Cc2ncn(C)c2C(COCC(C)C)C1` (stereo not given), -7%; that for `COCc1cncc2c1CCN(C(=O)c1cccc(C#N)c1)C2`, -8.16%.
As to `COCc1cncc2c1CCN(C(=O)c1ccc(C#N)cc1)C2`, the cytotoxicity at 70.5 h was -10.3%.
The result for `COc1cc(N2C[C@H]3CN(Cc4ccccn4)C[C@H]3C2)ncn1` reads -4.15%; that for `O=C(c1ccco1)N1CCO[C@@H]2CN(Cc3nccs3)CC[C@@H]2C1`, -6.2%.
Under `CC(C)COCC1CN(C(=O)c2cscn2)Cc2ncn(C)c21` (stereo not given) stands -6.45%; under `COC(=O)CCC(=O)N1CCCC2(CCCN2Cc2cccc(F)c2)C1` (stereo not given), -6.42%; under `Cc1noc(C)c1C(=O)N1Cc2ncn(C)c2C(COCC2CC2)C1` (stereo not given), -7.58%.
Turning to `CCn1nnc2c1C(COCC(=O)N(C)C)CN(Cc1ccco1)C2` (stereo not given), the cytotoxicity at 70.5 h was determined as 10.6%.
Turning to `Cc1nc(COCC2CN(C(N)=O)Cc3nccn3C2)cs1` (stereo not given), the cytotoxicity at 70.5 h is -5.1%.
Take `Cc1nc(COCC2CN(C(=O)N(C)C)Cc3nccn3C2)cs1` (stereo not given): the cytotoxicity at 70.5 h was -5.94%.
Under `CC(C)N1CCO[C@@H]2CN(S(=O)(=O)c3cccs3)CC[C@@H]2C1` stands -7.93%.
Under `CCN1CCO[C@@H]2CN(S(=O)(=O)c3cccs3)CC[C@@H]2C1` stands -6.19%.
Under `Cn1cc(CN2CCc3onc(C(=O)N4CCCC4)c3C2)cn1` stands 5.88%; under `Fc1cnc(N2CCN3C[C@H](Oc4cncnc4)C[C@H]3C2)nc1`, 5.05%; under `CC(C)CN1CCC(N2CCC(C(=O)N(C)C)CC2)CC1`, 3.98%.
Consider `CN1CCO[C@@H]2CN(S(=O)(=O)c3cccnc3)C[C@@H]2C1`, for which the cytotoxicity at 70.5 h was 2.04%.
The result for `Cc1ccc(O[C@@H]2C[C@H]3CN(c4ncc(F)cn4)CCN3C2)cc1` reads -0.913%; that for `Cc1cccc(CNC2CC3(CCN(CCO)CC3)c3ccccc32)n1` (stereo not given), 2.24%; that for `Cc1noc(C)c1CN1CCC2(CCN(Cc3cccc(F)c3)CC2)C1`, -9.09%.
The result for `Cc1ccc(CNC2CC3(CCN(CCO)CC3)c3ccccc32)s1` (stereo not given) reads 4.93%; that for `CS(=O)(=O)N1CCO[C@@H]2CCN(Cc3ccncc3)CC[C@H]21`, -6.06%; that for `CN(C)C(=O)COCc1cncc2c1CCN(C1CCOCC1)C2`, -7.93%.
The result for `CN(C)C1CCC2(CCN(Cc3nccn3C)CC2)c2ccccc21` (stereo not given) reads -4.41%; that for `CCN1Cc2nccn2CC(COCc2csc(C)n2)C1` (stereo not given), -3.32%.
For the molecule `Cc1noc(C)c1CN1C[C@H](OCC2CCN(C)CC2)[C@H]2COC[C@H]21`, the cytotoxicity at 70.5 h was determined as 30.4%.
Under `Fc1cnc(N2CCN3C[C@H](Oc4cccnc4)C[C@H]3C2)nc1` stands -3.94%.
For the molecule `Cc1ccc(CN2CC[C@@H]3OCCN(Cc4ccncc4)[C@H]3CC2)s1`, the cytotoxicity at 70.5 h is -6.32%.
